Columns and labels:
[1] = test system: adult patients diagnosed with highly active, non-cirrhotic NASH; assay: NATIVE phase 2b trial of lanifibranor, liver histology response at Week 24; format: in vivo, human; conditions: once daily orally, 24 weeks
Source text: Patients were eligible for inclusion if they were 18 years of age or older and had non-cirrhotic NASH (the diagnosis of which required a Steatosis, Activity, Fibrosis [SAF] grade of 1 or higher for steatosis, hepatocellular ballooning and lobular inflammation on liver biopsy). A score of 3 or higher on the SAF-A (the activity part of the SAF scoring system that incorporates the scores for hepatocellular ballooning and lobular inflammation) was also a criterion for eligibility. Patients with stage F4 fibrosis, classified according to the criteria of both the SAF and NASH Clinical Research Network (NASH CRN) were excluded from the study. Patients were randomly assigned in a 1:1:1 ratio to receive 800 or 1200 mg lanifibranor or placebo once daily for 24 weeks. Liver biopsy was obtained at baseline and at the end of treatment. The primary end point of the NATIVE study was defined as a decrease of at least 2 points from baseline to Week 24 (end of treatment) in the SAF-A score and no worsening of fibrosis. Secondary histologic end points included resolution of NASH (defined as a ballooning grade of 0 and a lobular inflammation grade of ≤1) and no worsening of fibrosis; improvement in fibrosis of at least 1 stage and no worsening of NASH (i.e., no worsening in either steatosis, ballooning, or lobular inflammation); Nonalcoholic Fatty Liver Disease Activity Score (NAS) improvement (defined as a decrease of ≥2 points from baseline to week 24 in the NAS) and no worsening of fibrosis; resolution of NASH and an improvement in fibrosis stage of at least 1 (as a composite end point); change in scores for the components of the SAF and NASH CRN scoring system (steatosis, activity, inflammation, ballooning, and fibrosis); and change in the modified Ishak score. Non-histologic secondary endpoints included changes in a panel of serum biomarkers related to metabolism, inflammation tissue injury and fibrosis. Patients receiving lanifibranor 800 or 1200 mg per day were pooled and those with pre- and post-treatment liver biopsies were selected (n=142). Post-treatment biopsies were considered if they occurred within 14 days following last lanifibranor intake. The following histological endpoint according to NASH-CRN criteria was considered: NASH resolution without worsening of fibrosis (E2). In the NATIVE trial, from February 2017 through July 2019, 247 patients were randomly assigned to receive 1200 mg of lanifibranor (N=83), 800 mg of lanifibranor (N=83), or placebo (N=81) orally once daily for 6 months. A total of 228 patients completed the trial, 77 in each lanifibranor group and 74 in the placebo group. Reasons for discontinuation of the trial regimen have been reported elsewhere. Finally, among the 154 patients treated with lanifibranor at both doses, 142 patients (N=70 and N=72 patients treated with 800 or 1200 mg per day, respectively) presented with pre- and post-treatment liver biopsies within the time frame required for the present work and were included in the analysis population for signature development.

[2] = test system: adult patients diagnosed with highly active, non-cirrhotic NASH; conditions: background statement, cited from earlier work
[3] = 800 and 1200 mg per day pooled, analysis population N=142

O=C(O)CCCc1cc2cc(Cl)ccc2n1S(=O)(=O)c1ccc2ncsc2c1 [lanifibranor, 4-[1-(1,3-benzothiazol-6-ylsulfonyl)-5-chloroindol-2-yl]butanoic acid]
Resolution of NASH without worsening of liver fibrosis (E2), number of patients ([1]; 800 mg per day, N=70): 27 patients | Resolution of NASH without worsening of liver fibrosis (E2), percentage of patients ([1]; 800 mg per day, N=70): 39% | Resolution of NASH without worsening of liver fibrosis (E2), number of patients ([1]; 1200 mg per day, N=72): 36 patients | Resolution of NASH without worsening of liver fibrosis (E2), percentage of patients ([1]; 1200 mg per day, N=72): 50% | Resolution of NASH without worsening of liver fibrosis (E2), number of patients [1, 3]: 63 patients | Resolution of NASH without worsening of liver fibrosis (E2), percentage of patients [1, 3]: 44% | Percentage of patients with a decrease of at least 2 points in the SAF-A score without worsening of fibrosis, compared to placebo ([2]; daily dose of 1200 mg, patients with active NASH): significantly higher | Secondary endpoints (NASH resolution and fibrosis improvement, NASH resolution without worsening of fibrosis, improvement of fibrosis without worsening of NASH; NASH-CRN), compared to placebo ([2]; lanifibranor groups): more favorable than placebo

Source: patent US20240410904A1, “NON-INVASIVE MONITORING OF LIVER DISEASE TREATMENT” (INVENTIVA, priority 2023, published 2024)
